Source: publication PMC9496321, “6-Furopyridine Hexamethylene Amiloride Is a Non-Selective P2X7 Receptor Antagonist” (Biomolecules, 2022)

Columns and labels:
[1] = molecular target: T1, P2X7 (Homo sapiens, UniProt Q99572); experiment: ATP-induced YO-PRO-1 uptake into human T cells (PBMCs); type: cell-based; set-up: Human peripheral blood mononuclear cells (PBMCs) were pre-incubated with DMSO (vehicle) or 30 μM 6-FPHMA; endogenous in cells; host or cells: cryopreserved human PBMCs (CD3+, CD4+, CD8+ T cells), four donors; conditions: 30 μM compound, 1 mM ATP
T1 sequence (Q99572 1-595): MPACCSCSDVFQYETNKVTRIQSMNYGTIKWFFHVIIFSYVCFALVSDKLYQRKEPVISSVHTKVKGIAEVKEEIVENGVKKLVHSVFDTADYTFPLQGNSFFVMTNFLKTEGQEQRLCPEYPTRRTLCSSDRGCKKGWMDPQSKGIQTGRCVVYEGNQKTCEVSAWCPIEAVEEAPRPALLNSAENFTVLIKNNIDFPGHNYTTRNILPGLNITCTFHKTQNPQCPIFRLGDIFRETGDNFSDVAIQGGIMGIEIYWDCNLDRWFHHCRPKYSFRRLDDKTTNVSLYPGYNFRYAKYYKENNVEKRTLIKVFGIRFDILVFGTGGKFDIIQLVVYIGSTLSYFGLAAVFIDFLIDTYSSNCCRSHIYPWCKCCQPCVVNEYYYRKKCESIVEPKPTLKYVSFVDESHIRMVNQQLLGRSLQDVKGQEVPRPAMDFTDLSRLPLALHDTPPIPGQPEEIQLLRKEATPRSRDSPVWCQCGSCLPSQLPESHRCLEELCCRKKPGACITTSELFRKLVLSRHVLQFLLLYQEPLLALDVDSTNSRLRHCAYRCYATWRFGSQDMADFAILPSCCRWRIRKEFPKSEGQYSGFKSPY
Experimental: ATP-mediated uptake assays were conducted as described with either ethidium bromide or YO-PRO-1 iodide. Briefly, RPMI8226, HEK-hP2X7, HEK-mP2X7, HEK-cP2X7 or cryopreserved human peripheral blood mononuclear cells (PBMCs) were washed thrice with LDM (300× g, 5 min), resuspended in LDM and 1 × 10^6 cells were added to individual tubes. Cells were pre-incubated in the absence of compound (37 °C, 5 min) or in the presence of compound or vehicle (DMSO) (37 °C, 15 min) as indicated. […] An equal volume of ice-cold Mg^2+ stop solution was added and cells centrifuged (300× g, 5 min). Cells were washed twice in LDM (300× g, 5 min), resuspended and data were collected with an LSR Fortessa X-20 flow cytometer. MFI of ethidium^+ or YO-PRO-1^2+ was determined using FlowJo.

[2] = tested on: hP2X7-mediated IL-1β release; experiment: Whole blood IL-1β release assay; type: cell-based; conditions: 30 μM compound, 6 mM ATP, LPS-primed human whole blood
Experimental: Whole blood IL-1β release assays were conducted as described. Briefly, whole human blood was mixed with an equal volume of serum-free RPMI-1640 medium containing LPS (200 ng/mL), added to a flat-bottom 96-well plate and incubated (37 °C, 95% air/5% CO2, 105 min). Compounds (30 μM) or vehicle (DMSO) were added to respective wells and incubated (37 °C, 95% air/5% CO2, 15 min). […] Plates were centrifuged (700× g, 10 min) with the resulting supernatants collected and stored at −80 °C. hIL-1β concentrations were determined using a Human IL-1β ELISA (Thermo Fisher Scientific) according to the manufacturer’s instructions. Samples above the detection limit (7500 pg/mL) were set at 7500 pg/mL for statistical analysis.

Compound: N=C(N)NC(=O)c1nc(-c2cc3cnccc3o2)c(N2CCCCCC2)nc1N [6-FPHMA, 6-furopyridine-substituted 5-(N,N-hexamethylene) amiloride]
- reduction of ATP-induced YO-PRO-1 uptake into CD3+ T cells [1]: 62 ± 3%
- reduction of ATP-induced YO-PRO-1 uptake into CD4+ T cells [1]: 62 ± 3%
- reduction of ATP-induced YO-PRO-1 uptake into CD8+ T cells [1]: 62 ± 4%
- reduction of ATP-induced IL-1β compared to vehicle control [2]: 56 ± 15%
